Measurements published in paper PMC11477141, “Chemokine Receptor N-Terminus Charge Dictates Reliance on Post-Translational Modifications for Effective Ligand Capture and Following Boosting by Defense Peptides” (International Journal of Molecular Sciences, 2024).
Where no end group is shown, it is not given here.

Legend:
[1] = biological target: T1, CCR1 (Homo sapiens, UniProt P32246); test: BRET CAMYEL cAMP sensor assay of ligand-induced Gαi signaling via CCR1; type: cell-based; conditions: n = 3
T1 construct: expressed in transfected cells; host or cells: CHO-K1, CHO-pgsB618 (GAG-minus), HEK293 WT / DeltaSia / sC
T1 sequence (P32246 1-355): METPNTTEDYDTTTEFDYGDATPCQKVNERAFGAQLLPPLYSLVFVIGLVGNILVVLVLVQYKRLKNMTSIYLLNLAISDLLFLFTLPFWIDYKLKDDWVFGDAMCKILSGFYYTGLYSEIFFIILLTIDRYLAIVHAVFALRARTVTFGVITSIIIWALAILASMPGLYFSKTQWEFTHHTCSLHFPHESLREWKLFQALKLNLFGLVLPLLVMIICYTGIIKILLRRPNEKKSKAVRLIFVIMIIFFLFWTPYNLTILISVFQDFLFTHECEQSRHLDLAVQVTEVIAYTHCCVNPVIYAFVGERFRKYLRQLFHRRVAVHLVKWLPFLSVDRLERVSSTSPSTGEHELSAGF
Method: For quantification of signaling initiated immediate downstream of receptor activation, we used the cAMP binding CAMYEL sensor to perform bioluminescence resonance energy transfer (BRET)-based assays. Shortly, in this assay increased receptor activation leads to an increase in BRET ratio. For detailed information see the Materials and Methods section.
In signaling assays testing the boosting ability of basic peptides, transfected cells were aliquoted into 96-well plates in the presence of 10 µM peptide or PBS vehicle. After R-Luc substrate addition, chemokines were added to reach final concentrations ranging from 0–100 nM (0, 0.1, 1, 10, and 100 nM) and forskolin was applied before reading emission at 475 and 525 nm.
BRET measurements of Gαi signaling and β-arrestin recruitment: Cells were seeded in 6-well plates (500,000 cells/well) and transiently transfected the following day. For BRET measurements of Gαi signaling, cells were transfected with vectors encoding the human chemokine receptors as indicated (160 ng/well) and the CAMYEL sensor (cAMP sensor, YFP-Epac-RLuc) (840 ng/well) using Lipofectamine (6 µL/well). Briefly, DNA was dissolved in 125 µL OPTI-MEM and Lipofectamine was dissolved in 125 µL OPTI-MEM. The DNA and Lipofectamine solutions were combined into a transfection mixture. The transfection mixture was added dropwise to cells incubated in OPTI-MEM (1 mL/well). Transfections were terminated after 5 h by adding 1 mL of fresh culture medium on top of the OPTI-MEM. The following day the cells were loosened from the plates in PBS with 5 mM glucose and subsequently aliquoted in white 96-well iso plates (~25,000 cells/well). When using C21TP variants and defense peptides (hBD2 and histatin), these were added to a final concentration of 10 μM/well, while an equal amount of PBS was added to control cells. The bioluminescence substrate coelenterazine was added to a final conc. of 5 µM. After 10 min, varying ligand concentrations were added. For BRET measurements of Gαi signaling, forskolin was added 5 min after the addition of the ligand, to a final conc. of 5 µM. The plates were kept in the dark at all times. A Perkin Elmer Envision machine was used for measuring the emission signals at 530 and 480 nm. The BRET signal is determined as the ratio eYFP (530 nm)/Rluc (480 nm).
BRET principle with CAMYEL: For quantification of signaling initiated immediately downstream of receptor activation, we used the cAMP binding CAMYEL sensor to perform bioluminescence resonance energy transfer (BRET) based assays. In this assay we measure changes in intracellular cAMP levels in response to receptor activation. Activation of chemokine receptors lead to a decrease in cAMP through inhibition of adenylate cyclase (AC). In the current setup we initially add forskolin that stimulates AC directly to induce an increase in intracellular cAMP, and we then measure the ability of a ligand (chemokine) to counteract the forskolin-induced increase in cAMP. The cAMP sensor (CAMYEL cAMP sensor, YFP-Epac-RLuc) carries the donor Renilla luciferase (Rluc) and the acceptor YFP. Coelenterazine is a substrate for Rluc that will emit light at around 475 nm upon enzymatic cleavage catalyzed by Rluc. When Rluc and YFP are in close proximity, the energy from the emitted light from coelenterazine can be transferred to YFP, resulting in an excitation of YFP, leading to a BRET signal around 525 nm. EPAC is a cAMP binding protein that changes conformation upon cAMP binding. During low cAMP concentrations, Rluc and YFP are near each other, and a strong BRET signal at 525 nm is obtained. When cAMP levels increase, cAMP will bind to EPAC, creating a conformational change, separating Rluc and YFP, reducing the BRET ratio, and increasing the emission from Rluc at 475 nm. Thus, by measuring the ratio between the cAMP-bound (475 nm) and the cAMP-free (525 nm) state of CAMYEL we obtain a measure of receptor activation. […]

[2] = test system: Y10Y14Y15AAA-CCR5; test: BRET CAMYEL Gαi signaling via Y10Y14Y15AAA-CCR5; type: cell-based, human; conditions: CHO cells, n = 3
Method: BRET measurements of Gαi signaling and β-arrestin recruitment: Cells were seeded in 6-well plates (500,000 cells/well) and transiently transfected the following day. For BRET measurements of Gαi signaling, cells were transfected with vectors encoding the human chemokine receptors as indicated (160 ng/well) and the CAMYEL sensor (cAMP sensor, YFP-Epac-RLuc) (840 ng/well) using Lipofectamine (6 µL/well). Briefly, DNA was dissolved in 125 µL OPTI-MEM and Lipofectamine was dissolved in 125 µL OPTI-MEM. The DNA and Lipofectamine solutions were combined into a transfection mixture. The transfection mixture was added dropwise to cells incubated in OPTI-MEM (1 mL/well). Transfections were terminated after 5 h by adding 1 mL of fresh culture medium on top of the OPTI-MEM. The following day the cells were loosened from the plates in PBS with 5 mM glucose and subsequently aliquoted in white 96-well iso plates (~25,000 cells/well). […] The BRET signal is determined as the ratio eYFP (530 nm)/Rluc (480 nm).
BRET principle with CAMYEL: For quantification of signaling initiated immediately downstream of receptor activation, we used the cAMP binding CAMYEL sensor to perform bioluminescence resonance energy transfer (BRET) based assays. […] The BRET ratio is determined as the ratio between YFP/Rluc, and an increase in BRET ratio indicates a decrease in cAMP and thus increased chemokine receptor activation. […]

[3] = CHO-K1 cells, 10 µM peptide, chemokine 0-100 nM
[4] = HEK293 WT, DeltaSia and sC cells, 10 µM peptide

| LogEC50 of CCL5-induced Gαi signaling via CCR1 ([1]; CHO GAG-minus cells (CHO-pgsB618)) | LogEC50 of CCL5-induced Gαi signaling via CCR1 ([1]; CHO GAG-plus (WT CHO-K1) cells) | Gαi signaling via CCR1 in DeltaSia and sC cells ([1]; HEK293 DeltaSia and sC, CCL5 oligomerization variants experiment) | boosting of CCL5 signaling via CCR1 in GAG-plus and GAG-minus cells ([1]; CHO GAG-plus and CHO GAG-minus (CHO-pgsB618) cells, 10 µM peptide) | boosting of CCL5-induced Gαi signaling via CCR1 [1, 3] | boosting of CCL7-induced Gαi signaling via CCR1 [1, 3] | effect on CCL3-induced Gαi signaling via CCR1 [1, 3] | boosting of signaling by CCL5, E26A and E66A via CCR1 ([1]; HEK293 DeltaSia cells, 10 µM peptide) | boosting of CCL3 signaling via CCR1 [1, 4] | boosting of CCL5 signaling via CCR1 [1, 4] | boosting of CCL7 signaling via CCR1 [1, 4] | boosting of signaling by CCL5, E26A and E66A via CCR1 ([1]; HEK293 sC cells, 10 µM peptide) | boosting of CCL5 signaling via Y10Y14Y15AAA receptor variant ([2]; 10 µM peptide) | Substance | Gαi signaling via CCR1 in DeltaSia and sC cells compared to WT cells ([1]; HEK293 DeltaSia and sC) | Gαi signaling via Y10Y14Y15AAA-CCR5 compared to WT-CCR5 [2] | boosting of signaling by CCL5, E26A and E66A via CCR1 ([1]; HEK293 WT cells, 10 µM peptide) |
| --- | --- | --- | --- | --- | --- | --- | --- | --- | --- | --- | --- | --- | --- | --- | --- | --- |
| −9.42 ± 0.131 | −8.89 ± 0.133 | remains high | – | – | – | – | – | – | – | – | – | – | CCL5: human chemokine from Peprotech, overall basic | persists in DeltaSia and sC to almost the same high level as observed in WT cells | completely abolished | – |
| – | – | – | boosted | boosted | boosted | not affected | tendency for boosting | not boosted | preserved across all three cell lines | persists | significant boosting | no longer possible | RKDRGASKTGKKGKGSKGCKRTERSQTPKGP [C21TP^81-111] | – | – | boosting occurs with all three versions of CCL5 |
